According to patent publication US20260297042A1, “BIARYLAMIDE DERIVATIVES AND THEIR USE AS PKMYT1 INHIBITORS” (CANCER RESEARCH TECHNOLOGY LIMITED, priority 2023, published 2026):

Biological target: T1, Human PKMYT1 (Homo sapiens, UniProt Q99640)
T1 construct: Human PKMYT1 75-362 was cloned as a TEV cleavable 6xHis fusion; 6xHis (TEV cleavable) (cleaved yes); made in house; host or cells: bacterial cells
T1 sequence (Q99640 75-362): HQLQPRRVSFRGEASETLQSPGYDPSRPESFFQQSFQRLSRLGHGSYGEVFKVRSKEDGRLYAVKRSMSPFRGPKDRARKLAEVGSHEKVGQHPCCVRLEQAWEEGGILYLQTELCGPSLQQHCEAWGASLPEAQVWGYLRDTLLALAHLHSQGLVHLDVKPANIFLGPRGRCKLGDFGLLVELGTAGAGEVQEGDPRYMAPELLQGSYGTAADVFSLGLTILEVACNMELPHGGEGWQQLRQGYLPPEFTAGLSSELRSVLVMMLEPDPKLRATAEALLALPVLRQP
Test: PKMYT1 biochemical ADP-Glo enzymatic assay
Settings: ADP-Glo; 15 nM PKMYT1 kinase domain, 500 µM ATP, 60 minutes at 26° C.; banded
Protocol: Human PKMYT1 75-362 was cloned as a TEV cleavable 6xHis fusion in bacterial cells. After purification on a Ni++HiTrap Chelating HP column, the His-tag was cleaved using TEV protease. Cleaved PKMYT1 was further purified on a Superdex 200 16/600 sizing column. The fractions containing PKMYT1 were pooled and concentrated using an ultrafiltration centrifugal protein concentrator. The purified protein was aliquoted, flash frozen in liquid nitrogen, and stored at −80° C.
PKMYT1 biochemical assay: Inhibition of PKMYT1 was assessed using the ADP-Glo™ Max Detection System from Promega. This assay detects the production of ADP from ATP by PKMYT1 via a two-step process ultimately involving the conversion of ADP to ATP with the latter converted to light in a coupled reaction with luciferase/luciferin. Inhibition of PKMYT1 by small molecule inhibitors results in a retardation of luminescence above background. The intrinsic ATPase activity of PKMYT1 was assessed according to the following protocol. Compounds were dosed into Corning white low volume 384 well assay plates using an Echo acoustic dispenser to generate 10-point curves spanning a 3-fold dilution series. DMSO (no inhibitor) control wells were prepared to benchmark the maximum and minimum signals in the presence and absence of PKMYT1, respectively. The PKMYT1 kinase domain was purified in-house, as described above, and added to the wells at a final concentration of 15 nM in a buffer of 50 mM HEPES (pH 7.5), 10 mM MgCl2, 1 mM EGTA, 0.01% Brij-35, 1% DMSO. 500 µM ATP was added to start the reaction with the final assay volume being 4 μl. The plate was then incubated for 60 minutes at 26° C. before the addition of 4 μl of ADP-Glo Reagent to stop the reaction and deplete the unconsumed ATP. Following a further 60 minute incubation the assay signal was developed by the addition of 8 μl ADP-Glo Max Detection Reagent. After 60 minutes the luminescence signal was read on a PHERAStar FS microplate reader (BMG Labtech).
Data analysis: Data was captured and analysed within the Dotmatics Studies software module where dose response curves were generated and IC50 values determined. Acceptance and verification of data followed strict in-house business rules which are summarised as follows. […] Technical and biological replicates of each compound are routinely tested and replicate IC50 values must fall within 3-fold of each other with dose response curves showing ‘goodness of fit’ r2 values >0.9. Failure to meet any of these defined criteria result in rejection of data.

| SMILES | IC50 [nM] |
| --- | --- |
| CCOC(=O)c1coc(Nc2ncc(C(=O)Nc3c(C)ccc(O)c3C)s2)n1 [BAA-045] | 50 to 1000 |
| Cc1ccc(O)c(C)c1NC(=O)c1cnc(N[C@H]2CCN(C(=O)OC(C)(C)C)C2)s1 [BAA-049, tert-butyl (3S)-3-[5-[(3-hydroxy-2,6-dimethyl-phenyl)carbamoyl]thiazol-2-ylamino]pyrrolidine-1-carboxylate] | 1000 to 11000 |
| Cc1ccc(O)c(C)c1NC(=O)c1cnc(N[C@@H]2CCN(C(=O)OC(C)(C)C)C2)s1 [BAA-050] | 1000 to 11000 |
| Cc1ccc(O)c(C)c1NC(=O)c1cnc(Nc2cc(CN3CCN(CCO)CC3)n(C)n2)s1 [BAA-052, N-(3-Hydroxy-2.6-dimethyl-phenyl)-2-[[5-[[4-(2-hydroxyethyl)piperazin-4-ium-1-yl]methyl]-1-methyl-pyrazol-3-yl]amino]thiazole-5-carboxamide] | 1000 to 11000 |
| Cc1ccc(O)c(C)c1NC(=O)c1cnc(NCCCO)s1 [BAA-069, N-(3-hydroxy-2,6-dimethyl-phenyl)-2-(3-hydroxypropylamino)thiazole-5-carboxamide] | 1000 to 11000 |
| Cc1ccc(O)c(C)c1NC(=O)c1cnc(NCC(N)=O)s1 [BAA-070, 2-[(2-amino-2-oxo-ethyl)amino]-N-(3-hydroxy-2,6-dimethyl-phenyl)thiazole-5-carboxamide] | 1000 to 11000 |
| Cc1ccc(O)c(C)c1NC(=O)c1cnc(NCCC(C)(C)C)s1 [BAA-074, 2-(3,3-dimethylbutylamino)-N-(3-hydroxy-2,6-dimethyl-phenyl)thiazole-5-carboxamide] | 1000 to 11000 |
| Cc1ccc(O)c(C)c1NC(=O)c1cnc(NCCc2ccc(C(F)(F)F)cc2)s1 [BAA-075, N-(3-hydroxy-2,6-dimethyl-phenyl)-2-[2-[4-(trifluoromethyl)phenyl]ethylamino]thiazole-5-carboxamide] | 1000 to 11000 |
| Cc1ccc(O)c(C)c1NC(=O)c1cnc(NCC2CCN(C(=O)CN3CCCC3)CC2)s1 [BAA-211, N-(3-Hydroxy-2.6-dimethyl-phenyl)-2-[[1-(2-pyrrolidin-1-ylacetyl)-4-piperidyl]methylamino]thiazole-5-carboxamide] | 1000 to 11000 |
| Cc1ccc(O)c(C)c1NC(=O)c1cnc(NCC2CCN(CC(=O)N(C)C)CC2)s1 [BAA-216, 2-[[1-[2-(dimethylamino)-2-oxo-ethyl]-4-piperidyl]methylamino]-N-(3-hydroxy-2,6-dimethyl-phenyl)thiazole-5-carboxamide] | 1000 to 11000 |
| Cc1ccc(O)c(C)c1NC(=O)c1cnc(NCC2CCN(C(=O)CN3CCOCC3)CC2)s1 [BAA-217, N-(3-hydroxy-2,6-dimethyl-phenyl)-2-[[1-(2-morpholinoacetyl)-4-piperidyl]methylamino]thiazole-5-carboxamide] | 50 to 1000 |
| Cc1ccc(O)c(C)c1NC(=O)c1cnc(Nc2ccc(-c3ccc(F)cc3)cn2)s1 [BAA-291, 2-((5-(4-fluorophenyl)pyridin-2-yl)amino)-N-(3-hydroxy-2,6-dimethylphenyl)thiazole-5-carboxamide] | 1000 to 11000 |
| Cc1cc(-c2ccc(F)cc2)cnc1Nc1ncc(C(=O)Nc2c(C)ccc(O)c2C)s1 [BAA-292, 2-((5-(4-fluorophenyl)-3-methylpyridin-2-yl)amino)-N-(3-hydroxy-2,6-dimethylphenyl)thiazole-5-carboxamide] | 1000 to 11000 |
| CCN(c1ccc(F)cc1)c1ccc(Nc2ncc(C(=O)Nc3c(C)ccc(O)c3C)s2)nc1 [BAA-311, 2-((5-(ethyl(4-fluorophenyl)amino)pyridin-2-yl)amino)-N-(3-hydroxy-2,6-dimethylphenyl)thiazole-5-carboxamide] | 1000 to 11000 |
| CCN(c1ccc(F)cc1)c1cccc(Nc2ncc(C(=O)Nc3c(C)ccc(O)c3C)s2)n1 [BAA-312, 2-((6-(ethyl(4-fluorophenyl)amino)pyridin-2-yl)amino)-N-(3-hydroxy-2,6-dimethylphenyl)thiazole-5-carboxamide] | 1000 to 11000 |

The next lines start with the values.

| IC50 [nM] | SMILES |
| --- | --- |
| 1000 to 11000 | Cc1ccc(O)c(C)c1NC(=O)c1cnc(Nc2ccn(CCNC(=O)OC(C)(C)C)n2)s1 [BAA-020, tert-butyl N-[2-[3-[5-[(3-hydroxy-2,6-dimethyl-phenyl)carbamoyl]thiazol-2-yl]amino]pyrazol-1-ylethyl]carbamate] |
| 1000 to 11000 | Cc1ccc(O)c(C)c1NC(=O)c1cnc(Nc2cn[nH]c2)s1 [BAA-026, N-(3-hydroxy-2,6-dimethyl-phenyl)-2-(1H-pyrazol-4-ylamino)thiazole-5-carboxamide] |
| 1000 to 11000 | Cc1ccc(O)c(C)c1NC(=O)c1cnc(Nc2ccn([C@H]3CCCN(C(=O)OC(C)(C)C)C3)n2)s1 [BAA-039] |
| 50 to 1000 | Cc1ccc(O)c(C)c1NC(=O)c1cnc(Nc2ccn([C@H]3CCOC3)n2)s1 [BAA-041] |
| 1000 to 11000 | Cc1ccc(O)c(C)c1NC(=O)c1cnc(NC2CCCCC2)s1 [BAA-064, 2-(cyclohexylamino)-N-(3-hydroxy-2,6-dimethyl-phenyl)thiazole-5-carboxamide] |
| 50 to 1000 | Cc1ccc(O)c(C)c1NC(=O)c1cnc(Nc2ccn(CC(=O)NC[C@H](C)O)n2)s1 [BAA-174] |

Same assay, conditions: PKMYT1 biochemical ADP-Glo enzymatic assay; Comparison Data 1

| IC50 [nM] | SMILES |
| --- | --- |
| 53200 | Cc1ccc(O)cc1NC(=O)c1cnc(N)s1 [REF-001, 2-Amino-N-(5-hydroxy-2-methyl-phenyl)thiazole-5-carboxamide, reference compound] |
| 26800 | Cc1c(O)cccc1NC(=O)c1cnc(N)s1 [REF-002, 2-Amino-N-(3-hydroxy-2-methyl-phenyl)thiazole-5-carboxamide, reference compound] |

Same assay, conditions: PKMYT1 biochemical ADP-Glo enzymatic assay; Comparison Data 2

| IC50 [nM] | SMILES |
| --- | --- |
| 54300 | Cc1cccc(C)c1NC(=O)c1cnc(Nc2ccn(C)n2)s1 [REF-003, N-(2,6-Dimethylphenyl)-2-[(1-methylpyrazol-3-yl)amino]thiazole-5-carboxamide, reference compound] |
| > 100000 | COc1ccc(C)c(NC(=O)c2cnc(Nc3ccn(C)n3)s2)c1C [REF-004, N-(3-Methoxy-2,6-dimethyl-phenyl)-2-[(1-methylpyrazol-3-yl)amino]thiazole-5-carboxamide, reference compound] |

Same assay, conditions: PKMYT1 kinase domain 15 nM; ADP-Glo; banded values

| SMILES | IC50 [nM] |
| --- | --- |
| Cc1ccc(N2CCN(C3CC3)CC2)nc1Nc1ncc(C(=O)Nc2c(C)ccc(O)c2C)s1 [BAA-433, 2-((6-(4-cyclopropylpiperazin-1-yl)-3-methylpyridin-2-yl)amino)-N-(3-hydroxy-2,6-dimethylphenyl)thiazole-5-carboxamide] | < 50 |
| CCN(CC)C(=O)Cn1nc(C(F)(F)F)cc1Nc1ncc(C(=O)Nc2c(C)ccc(O)c2C)s1 [BAA-561, 2-((1-(2-(diethylamino)-2-oxoethyl)-3-(trifluoromethyl)-1H-pyrazol-5-yl)amino)-N-(3-hydroxy-2,6-dimethylphenyl)thiazole-5-carboxamide] | 1000 to 11000 |

The remaining lines, values ahead:

| IC50 [nM] | SMILES |
| --- | --- |
| 1000 to 11000 | Cc1cc(C)c(NC(=O)c2cnc(Nc3ccn(C)n3)s2)c(C)c1O [BAA-517, N-(3-Hydroxy-2,4,6-trimethylphenyl)-2-((1-methyl-1H-pyrazol-3-yl)amino)thiazole-5-carboxamide] |
| 1000 to 11000 | Cc1ccc(O)c(C)c1NC(=O)c1cnc(Nc2ccccc2C(C)C)s1 [BAA-525, N-(3-hydroxy-2,6-dimethylphenyl)-2-((2-isopropylphenyl)amino)thiazole-5-carboxamide] |
| 1000 to 11000 | Cc1cc(Cl)c(O)c(C)c1NC(=O)c1cnc(Nc2ccn(C)n2)s1 [BAA-547, N-(4-chloro-3-hydroxy-2,6-dimethylphenyl)-2-((1-methyl-1H-pyrazol-3-yl)amino)thiazole-5-carboxamide] |
